The source made the active and inactive calls.
Columns and labels:
[1] = target: G-protein coupled receptor 183 (Homo sapiens, UniProt P32249); assay: SAR confirmation of small molecule antagonists of the EBI2 receptor via a luminescent beta-arrestin assa.; type: functional
[2] = target: T1, Oxysterols receptor LXR-beta (Homo sapiens, UniProt P55055); type: functional, cell-based;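 further: Cell-based luminescence dose-response assay of agonist activity at LXR, run as a confirmatory counterscreen to a daf-12 agonist screen; agonist potency from rising luciferase signal of a Gal4-LXR reporter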
T1 sequence (P55055 whole entry): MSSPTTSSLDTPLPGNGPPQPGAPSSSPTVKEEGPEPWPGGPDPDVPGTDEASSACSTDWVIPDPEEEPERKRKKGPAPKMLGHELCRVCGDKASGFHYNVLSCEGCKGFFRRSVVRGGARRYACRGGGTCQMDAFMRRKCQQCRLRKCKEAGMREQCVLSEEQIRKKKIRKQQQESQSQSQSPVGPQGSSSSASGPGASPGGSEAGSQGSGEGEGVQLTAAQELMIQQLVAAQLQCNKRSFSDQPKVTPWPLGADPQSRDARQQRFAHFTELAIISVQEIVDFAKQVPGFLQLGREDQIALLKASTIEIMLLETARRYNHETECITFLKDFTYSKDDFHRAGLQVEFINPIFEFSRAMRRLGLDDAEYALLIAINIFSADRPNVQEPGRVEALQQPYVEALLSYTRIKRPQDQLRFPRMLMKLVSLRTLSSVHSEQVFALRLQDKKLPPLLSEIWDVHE

[3] = cells
[4] = Luminescence-based cell-based high throughput dose response assay to identify activators of the DAF-12 from the parasite S. stercoralis (ssDAF-12).; type: functional
[5] = target: T1, Oxysterols receptor LXR-beta; assay: LXR agonists, Gal4 luciferase reporter, dose response, counter-screen for ssDAF-12 agonist project, cell-based, luminescence, HEK293, S. stercoralis campaign (AID 720737); type: functional; conditions: read-out: IC50 (the source's name)
[6] = target: RNA-editing ligase 1, mitochondrial (Trypanosoma brucei brucei, UniProt P86926); assay: inhibition of trypanosome RNA editing ligase – biochemical, fluorescence, Trypanosoma brucei, dose response (AID 1117295); type: functional
RNA-editing ligase 1, mitochondrial, sequence (P86926 whole entry): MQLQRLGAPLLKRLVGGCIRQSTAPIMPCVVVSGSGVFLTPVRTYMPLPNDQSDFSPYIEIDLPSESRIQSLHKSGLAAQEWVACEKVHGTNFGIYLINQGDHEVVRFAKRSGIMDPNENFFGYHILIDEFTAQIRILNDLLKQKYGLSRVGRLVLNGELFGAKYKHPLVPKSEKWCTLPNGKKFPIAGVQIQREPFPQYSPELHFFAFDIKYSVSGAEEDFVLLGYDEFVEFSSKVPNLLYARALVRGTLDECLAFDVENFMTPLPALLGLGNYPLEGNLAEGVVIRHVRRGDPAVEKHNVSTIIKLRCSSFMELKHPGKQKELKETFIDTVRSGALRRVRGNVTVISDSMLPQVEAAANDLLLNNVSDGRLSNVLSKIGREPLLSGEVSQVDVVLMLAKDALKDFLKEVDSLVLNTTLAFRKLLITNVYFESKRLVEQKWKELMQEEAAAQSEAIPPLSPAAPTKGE

[7] = IC50 of insulin release inhibition, rat insulinoma INS-1E line, 5 mM glucose, cell-based (AID 1117331); type: functional
[8] = BioA aminotransferase inhibition, coupled fluorescent readout – biochemical, coupled fluorescence displacement, 20-point, dry powder, dose response (AID 743357); type: functional
[9] = target: T2, DNA repair and recombination protein RAD54-like (Homo sapiens, UniProt Q92698); assay: RAD54 Holliday junction migration blockers – biochemical, fluorescence, cherry-picked samples, dose series, confirmation (AID 651657); type: functional
T2 sequence (Q92698 whole entry): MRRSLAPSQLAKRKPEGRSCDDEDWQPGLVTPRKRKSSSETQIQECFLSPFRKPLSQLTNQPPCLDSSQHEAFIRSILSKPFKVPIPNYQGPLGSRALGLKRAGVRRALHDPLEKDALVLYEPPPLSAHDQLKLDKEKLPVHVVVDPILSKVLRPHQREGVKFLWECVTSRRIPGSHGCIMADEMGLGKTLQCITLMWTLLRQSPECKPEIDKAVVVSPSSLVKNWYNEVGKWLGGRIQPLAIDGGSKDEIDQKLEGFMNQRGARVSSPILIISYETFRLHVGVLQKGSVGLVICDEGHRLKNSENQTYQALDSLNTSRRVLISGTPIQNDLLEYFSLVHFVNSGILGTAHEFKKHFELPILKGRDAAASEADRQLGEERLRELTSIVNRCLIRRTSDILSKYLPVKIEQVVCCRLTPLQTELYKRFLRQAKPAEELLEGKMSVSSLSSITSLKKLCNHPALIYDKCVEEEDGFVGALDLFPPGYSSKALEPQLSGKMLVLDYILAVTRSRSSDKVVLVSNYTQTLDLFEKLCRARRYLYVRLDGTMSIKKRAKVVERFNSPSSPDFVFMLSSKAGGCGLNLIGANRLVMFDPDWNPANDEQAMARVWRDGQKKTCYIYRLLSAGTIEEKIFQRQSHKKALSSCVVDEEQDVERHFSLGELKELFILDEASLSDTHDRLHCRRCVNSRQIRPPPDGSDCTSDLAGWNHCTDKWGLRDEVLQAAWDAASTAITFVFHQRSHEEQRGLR

[10] = cells; conditions: A549
[11] = viability loss in HepG2 liver cells – cell-based, ATP luminescence, cherry-pick, set 6, cytotoxicity control, dose response (AID 1053125); type: functional
[12] = test system: HeLa; assay: ATP-based viability loss in HeLa cells – cell-based, CellTiter-Glo luminescence, cherry-pick samples, cytotoxicity control for MITF activator project, dose response (AID 540259); type: functional; conditions: Homo sapiens
[13] = cells; conditions: HEK293
[14] = target: E3 ubiquitin-protein ligase UHRF1 (Homo sapiens, UniProt Q96T88); assay: Counterscreen for inhibitors of 5-meCpG-binding domain protein 2 (MBD2): TRFRET-based biochemical high throughput dose response assay to identify inhibitors of binding of ubiquitin-like with PHD and ring finger domains 1 (UHRF1) to methylated oligonucleotide.
E3 ubiquitin-protein ligase UHRF1, sequence (Q96T88 whole entry, the tested form may be a part): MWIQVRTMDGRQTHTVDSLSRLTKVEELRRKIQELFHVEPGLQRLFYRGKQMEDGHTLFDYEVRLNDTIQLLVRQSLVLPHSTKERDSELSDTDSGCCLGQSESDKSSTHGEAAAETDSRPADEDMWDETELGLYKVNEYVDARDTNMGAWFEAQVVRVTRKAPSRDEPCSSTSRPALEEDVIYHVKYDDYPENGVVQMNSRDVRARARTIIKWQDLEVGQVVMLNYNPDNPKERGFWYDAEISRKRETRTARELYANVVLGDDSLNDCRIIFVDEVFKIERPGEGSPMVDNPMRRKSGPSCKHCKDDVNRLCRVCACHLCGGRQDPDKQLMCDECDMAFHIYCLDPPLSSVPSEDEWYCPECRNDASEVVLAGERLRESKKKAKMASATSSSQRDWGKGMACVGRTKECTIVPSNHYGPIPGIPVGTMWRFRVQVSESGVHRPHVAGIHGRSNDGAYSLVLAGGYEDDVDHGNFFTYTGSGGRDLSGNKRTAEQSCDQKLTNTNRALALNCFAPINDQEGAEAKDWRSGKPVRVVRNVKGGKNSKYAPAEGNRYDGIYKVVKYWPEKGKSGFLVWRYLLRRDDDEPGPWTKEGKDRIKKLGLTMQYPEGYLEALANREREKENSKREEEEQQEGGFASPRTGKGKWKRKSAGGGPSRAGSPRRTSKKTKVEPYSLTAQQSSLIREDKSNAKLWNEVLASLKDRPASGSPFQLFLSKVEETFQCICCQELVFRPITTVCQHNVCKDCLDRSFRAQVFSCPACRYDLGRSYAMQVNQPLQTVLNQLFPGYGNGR

[15] = HCT116 cell viability decrease, GSK3B pretreatment – CellTiter-Glo, IC50, dose response (AID 1117339); type: functional; conditions: HCT-116
[16] = test system: P388; assay: cells; type: functional; conditions: Mus musculus
[17] = cytotoxicity toward HT-29 cells – cell-based, CellTiter-Glo luminescence, IC50, dose response (AID 1117330); type: functional
[18] = CellTiter-Glo luminescence survival assay, SW480 colon tumor line, concentration-response curve, half-maximal inhibitory concentration (AID 1117338); type: functional
[19] = rise of 2N DNA cells, HeLa – IC50, dose response (AID 1117349); type: functional, cell-based
[20] = test system: SN12K1; assay: cells; type: functional; conditions: Homo sapiens
[21] = DRD fibroblast viability loss – cell-based, non-viral oncogenic, luminescence, dose response (AID 1934); type: functional; conditions: Homo sapiens
[22] = alpha-synuclein stem-loop luciferase translation blockers – H4 neuroglioma cells, luminescence, confirmation (AID 1988); type: functional, cell-based
[23] = rise of 4N DNA cells, HeLa – IC50, dose response (AID 1117351); type: functional, cell-based
[24] = test system: BJ; assay: BJ-TERT fibroblast viability loss – cell-based, RAS-independent, luminescence, dose response (AID 1933); type: functional; conditions: Homo sapiens
[25] = cytotoxicity toward HCT116 cells – cell-based, CellTiter-Glo luminescence, IC50, dose response (AID 1117332); type: functional; conditions: HCT-116
[26] = SNU-C1 cell viability reduction, dose response, CellTiter-Glo luminescence (AID 1117323); type: functional, cell-based
[27] = RKO cell viability reduction, dose response, CellTiter-Glo luminescence (AID 1117322); type: functional
[28] = Reduced DLD-1 viability, concentration-response, CellTiter-Glo luminescence (AID 1117352); type: functional
[29] = microbe, parasite or virus in culture; type: functional; conditions: Mycobacterium tuberculosis
[30] = test system: BJ; assay: growth inhibition of engineered Ras-driven BJ cells – cell-based, alamar blue fluorescence, cherrypicked samples, dose response (AID 2631); type: functional; conditions: Homo sapiens;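 further: confirmatory dose-response assay in RAS-dependent BJ fibroblasts engineered with TERT, LT and ST, with cytotoxicity read by fluorescence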
[31] = test system: BJ; assay: BJ-TERT-LT-ST fibroblast viability loss – cell-based, RAS-independent, luminescence, dose response (AID 1935); type: functional; conditions: Homo sapiens;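 further: BJ fibroblasts immortalized with TERT plus LT and ST oncogenes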
[32] = luciferase reporter signal suppression in cells – H4 neuroglioma cells, luminescence, dose response (AID 1990); type: functional, cell-based
[33] = cytotoxicity toward Colo320 cells – cell-based, CellTiter-Glo luminescence, IC50, dose response (AID 1117334); type: functional; conditions: COLO 320
[34] = test system: P388/ADR; assay: cells; type: functional; conditions: Mus musculus
[35] = test system: BJ; assay: cells; type: functional, cell-based; conditions: Homo sapiens
[36] = viability loss in THP-1 monocytes – THP-1 cells, cytotoxicity control for Vif-APOBEC3G degradation inhibitor project, dose response (AID 1117359); type: functional; conditions: THP-1
[37] = test system: Vero; assay: viability of Vero cells under compound – cytotoxicity control for flavivirus capping enzyme inhibitors (AID 588742); type: functional; conditions: Chlorocebus sabaeus
[38] = target: T3, Probable nicotinate-nucleotide adenylyltransferase (Staphylococcus aureus (strain N315), UniProt P65502); type: functional, Staphylococcus aureus subsp. aureus N315; conditions: read-out: IC50_Mean;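 on IC50 Mean: confirmatory dose-response retesting of NadD inhibitor hits first found in an ultra-high-throughput screen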
T3 sequence (P65502 whole entry): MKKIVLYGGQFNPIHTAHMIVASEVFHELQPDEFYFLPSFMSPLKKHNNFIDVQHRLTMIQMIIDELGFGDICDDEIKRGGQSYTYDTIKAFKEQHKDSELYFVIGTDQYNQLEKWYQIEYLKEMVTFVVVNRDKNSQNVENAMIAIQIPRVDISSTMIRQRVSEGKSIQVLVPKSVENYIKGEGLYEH

[39] = target: Genome polyprotein (dengue virus type 2, UniProt P29990); assay: flavivirus cap methylation enzyme inhibition – biochemical, confirmation dose response, primary screen (AID 588689); type: functional
Genome polyprotein, sequence (P29990 2492-3391 limits assumed): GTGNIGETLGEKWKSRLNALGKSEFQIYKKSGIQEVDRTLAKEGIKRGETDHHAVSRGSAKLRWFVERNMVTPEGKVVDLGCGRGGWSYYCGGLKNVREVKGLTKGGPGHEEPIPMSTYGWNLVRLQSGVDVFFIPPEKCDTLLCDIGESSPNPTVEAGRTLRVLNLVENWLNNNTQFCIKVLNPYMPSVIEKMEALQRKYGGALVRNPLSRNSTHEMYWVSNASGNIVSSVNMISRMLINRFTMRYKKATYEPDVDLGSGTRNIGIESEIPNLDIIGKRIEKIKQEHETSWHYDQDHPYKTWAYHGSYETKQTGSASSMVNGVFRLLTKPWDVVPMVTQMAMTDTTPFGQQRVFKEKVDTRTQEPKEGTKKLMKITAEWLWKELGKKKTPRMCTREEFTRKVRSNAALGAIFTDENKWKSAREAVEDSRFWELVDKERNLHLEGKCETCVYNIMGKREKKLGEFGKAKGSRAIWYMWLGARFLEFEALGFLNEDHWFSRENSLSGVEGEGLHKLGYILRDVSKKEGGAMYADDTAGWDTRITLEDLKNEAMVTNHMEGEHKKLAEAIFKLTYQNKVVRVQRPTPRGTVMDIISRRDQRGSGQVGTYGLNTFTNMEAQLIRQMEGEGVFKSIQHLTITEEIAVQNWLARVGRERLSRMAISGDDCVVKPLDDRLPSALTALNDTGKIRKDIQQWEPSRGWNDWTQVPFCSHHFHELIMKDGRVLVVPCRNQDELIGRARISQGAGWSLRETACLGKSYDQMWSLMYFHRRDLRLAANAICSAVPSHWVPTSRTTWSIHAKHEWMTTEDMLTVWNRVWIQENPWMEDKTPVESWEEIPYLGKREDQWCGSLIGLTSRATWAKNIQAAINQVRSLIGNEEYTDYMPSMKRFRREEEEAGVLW

[40] = target: T3, Probable nicotinate-nucleotide adenylyltransferase; type: functional, Staphylococcus aureus subsp. aureus N315
[41] = target: Glucose-6-phosphate 1-dehydrogenase (Homo sapiens, UniProt P11413); assay: inhibition of Homo sapiens G6PD, dose series – biochemical, fluorescence, selectivity assay for P. falciparum G6PD inhibitor project, dose response (AID 504792); type: functional
Glucose-6-phosphate 1-dehydrogenase, sequence (P11413 whole entry): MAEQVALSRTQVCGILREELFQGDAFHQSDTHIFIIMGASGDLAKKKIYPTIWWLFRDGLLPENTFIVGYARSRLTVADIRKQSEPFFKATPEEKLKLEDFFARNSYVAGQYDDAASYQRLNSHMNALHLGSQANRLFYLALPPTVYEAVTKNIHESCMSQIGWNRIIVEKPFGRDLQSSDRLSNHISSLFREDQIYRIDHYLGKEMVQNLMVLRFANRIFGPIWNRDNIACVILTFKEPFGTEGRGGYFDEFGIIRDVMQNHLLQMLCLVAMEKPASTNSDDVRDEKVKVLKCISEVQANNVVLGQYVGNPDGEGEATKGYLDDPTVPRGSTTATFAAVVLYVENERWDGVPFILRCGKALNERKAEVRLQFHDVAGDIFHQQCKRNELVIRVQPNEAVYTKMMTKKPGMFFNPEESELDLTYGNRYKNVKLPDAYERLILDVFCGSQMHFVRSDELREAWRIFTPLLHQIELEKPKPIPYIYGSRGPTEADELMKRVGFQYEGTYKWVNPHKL

[42] = target: Protein Tat (Human immunodeficiency virus type 1 group M subtype B (isolate HXB2)(HIV-1), UniProt P04608); type: functional;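 further: tat binding to TAR RNA read out by fluorescence polarization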
Protein Tat, sequence (P04608 whole entry): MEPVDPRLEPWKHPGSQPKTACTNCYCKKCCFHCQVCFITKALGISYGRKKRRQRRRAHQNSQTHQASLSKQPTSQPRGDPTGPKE

[43] = viability loss in A549 lung cells – cell-based, 24 h, CellTiter-Glo luminescence, cherry-picks, cytotoxicity control, dose response (AID 1053115); type: functional; conditions: A549, 24 h
[44] = lung carcinoma cell viability loss – CellTiter-Glo luminescence, dry powder, set 17, dose response (AID 1117284); type: functional, cell-based, A549
[45] = Orthopox viral replication plaque formation Measured in Cell-Based and Microorganism Combination System Using Imaging - 2142-05_Inhibitor_Dose_DryPowder_Activity.; type: functional

G-protein coupled receptor 183, sequence (P32249 whole entry, the tested form may be a part): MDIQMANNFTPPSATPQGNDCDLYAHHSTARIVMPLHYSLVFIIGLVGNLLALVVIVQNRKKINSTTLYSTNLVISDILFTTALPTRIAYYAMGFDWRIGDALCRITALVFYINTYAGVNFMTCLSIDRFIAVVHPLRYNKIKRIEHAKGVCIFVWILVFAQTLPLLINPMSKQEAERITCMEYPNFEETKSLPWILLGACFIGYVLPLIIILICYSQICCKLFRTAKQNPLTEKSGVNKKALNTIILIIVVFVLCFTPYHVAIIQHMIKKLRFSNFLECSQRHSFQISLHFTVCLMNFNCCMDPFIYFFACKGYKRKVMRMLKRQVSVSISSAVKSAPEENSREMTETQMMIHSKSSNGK

## CCCc1ccc(S(=O)(=O)N2CCN(C(=O)/C=C/c3ccc(F)cc3)CC2)cc1
[1]
  IC50: 0.0241 µM (active)

## Cc1ccc(-c2cc3nc(C)cc(C)n3n2)cc1
[2]
  EC50: > 67.5 µM (inactive)
[3]
  EC50: > 67.5 µM (inactive)
[4]
  IC50: > 67.5 µM (inactive)
[5]
  EC50: > 67.5 µM (inactive)

## CCCCN(C)C(=O)c1ccc(Nc2nc(C(N)Cc3ccc(C(F)(F)F)cc3)cs2)nc1 (stereo unspecified)
[6]
  IC50: > 96.6 µM (inactive)

## CN(C)CC[C@@H](c1ccc(Cl)cc1)c1ccccn1
[7]
  IC50: 17.7 µM (inactive)

## CS(=O)(=O)c1ccc(N2CCN(C(=O)c3ccc4c(c3)OCO4)CC2)cc1
[8]
  AC50: 15.1 µM (active)

## COc1cc2sc3cc(NCC[C@@H]4CCCN4C)ccc3c(=O)c2cc1OC
[9]
  AC50: 6.9 µM (active)
[10]
  AC50: 35.5 µM (active)
[11]
  AC50: 17.6 µM (active)
[12]
  AC50: 191 µM (active)
[13]
  AC50: 38 µM (active)
[14]
  IC50: 26.2 µM (inactive)

## Sc1ncnc2nc[nH]c12 [MERCAPTOPURINE ANHYDROUS]
[15]
  IC50: 1.42 µM (active)
[16]
  GI50: 8.89 µM (inactive)
[17]
  IC50: 0.635 µM (active)
[18]
  IC50: 1.04 µM (active)
[19]
  IC50: > 10 µM (inactive)
[20]
  GI50: 1.29 µM (inactive)
[21]
  EC50: 5.35 µM (active)
[22]
  EC50: 11.6 µM (active)
[23]
  IC50: > 10 µM (inactive)
[24]
  EC50: > 150 µM (not active)
[25]
  IC50: 0.259 µM (active)
[26]
  IC50: > 20 µM (inactive)
[27]
  IC50: 0.659 µM (active)
[28]
  IC50: 0.26 µM (active)
[29]
  CC50: > 40 µM (active)
[30]
  EC50: > 133 µM (inactive)
[31]
  EC50: > 150 µM (not active)
[32]
  EC50: 13 µM (active)
[33]
  IC50: 1.3 µM (active)
[34]
  GI50: 19.5 µM (inactive)
[35]
  EC50: 4.33 µM (inconclusive)

## O=C1OC(c2ccc3ccccc3c2O)(c2ccc3ccccc3c2O)c2ccccc21
[36]
  CC50: > 40 µM (active)
[37]
  CC50: > 40 µM (active)
[38]
  IC50: 20.9 µM (active)
[39]
  IC50: 19 µM (active)
[40]
  IC50: 7.05 µM (active)
[41]
  IC50: > 80 µM (inactive)
[42]
  IC50: > 100 µM (active)

## C[C@@H](O)C#Cc1ccc2c(c1)O[C@@H](CN(C)Cc1ccc(-c3ccccc3)cc1)[C@@H](C)CN([C@@H](C)CO)S2(=O)=O
[43]
  AC50: > 60 µM (inactive)
[44]; A549
  AC50: > 52 µM (inactive)
[44]; a549
  AC50: 49.4 µM (active)
[45]
  AC50: 8.84 µM (active)

— ChEMBL document CHEMBL1201862, “PubChem BioAssay data set” (2004)
